This note sets out measurements from PubChem BioAssay AID651971 (The Scripps Research Institute Molecular Screening Center, 2013).

The source made the active and inactive calls. How the calls were made is not given here.

This assay deals with methionyl-tRNA synthetase (Trypanosoma brucei brucei) (UniProt Q38C91). Put plainly: inhibition of trypanosome methionyl-tRNA synthetase – biochemical, luminescence, dose response (AID 651971). As to conditions: recombinant T. brucei MetRS, luminescence (ATP consumption).
Chain of methionyl-tRNA synthetase (Trypanosoma brucei brucei) (Q38C91 1-773): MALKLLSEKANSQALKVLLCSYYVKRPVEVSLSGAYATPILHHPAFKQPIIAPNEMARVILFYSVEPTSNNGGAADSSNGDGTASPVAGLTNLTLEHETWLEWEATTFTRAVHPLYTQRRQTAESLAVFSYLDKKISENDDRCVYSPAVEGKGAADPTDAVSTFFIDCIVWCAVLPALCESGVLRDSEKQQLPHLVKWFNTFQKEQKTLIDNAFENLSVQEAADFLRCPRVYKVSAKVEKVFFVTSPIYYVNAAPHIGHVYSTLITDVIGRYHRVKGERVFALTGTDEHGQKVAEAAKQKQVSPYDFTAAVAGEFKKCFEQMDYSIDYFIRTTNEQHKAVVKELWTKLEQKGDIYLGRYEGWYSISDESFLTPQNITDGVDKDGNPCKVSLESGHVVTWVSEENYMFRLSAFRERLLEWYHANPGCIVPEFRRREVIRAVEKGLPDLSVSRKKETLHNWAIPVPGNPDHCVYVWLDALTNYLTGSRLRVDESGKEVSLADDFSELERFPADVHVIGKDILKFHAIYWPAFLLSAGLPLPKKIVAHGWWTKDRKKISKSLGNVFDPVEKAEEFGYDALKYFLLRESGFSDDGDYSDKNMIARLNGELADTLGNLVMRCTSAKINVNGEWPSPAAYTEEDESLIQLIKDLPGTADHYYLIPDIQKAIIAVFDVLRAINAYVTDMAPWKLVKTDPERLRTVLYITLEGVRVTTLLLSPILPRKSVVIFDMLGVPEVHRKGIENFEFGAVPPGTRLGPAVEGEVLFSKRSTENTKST

On to `Cc1ccc(C(=O)Nn2c(O)c(C=C3N=c4ccccc4=N3)sc2=S)cc1`, for which the IC50 was > 119 µM (inactive).
